Where no end group is shown, it is not given here.
Columns and labels:
Experiment in all cases: Octapeptide substrate specificity / kinetic characterization with partially purified yeast myristoylating enzyme (Table II)
[1] = molecular target: T1, myristoylating enzyme from yeast (N-myristoylglycylpeptide synthetase) (Saccharomyces cerevisiae, UniProt P14743); format: biochemical; settings: for Ki: inhibition of myristoylation of the substrate Gly-Asn-Ala-Ala-Ala-Ala-Arg-Arg
T1 construct: partially purified from a crude homogenate of the cultured yeast cells by fractionation with 51-70% (NH4)2 SO4; endogenous in cells; host or cells: S. cerevisiae strain JR153; ammonium sulfate cut, DEAE-Sepharose CL-6B, CoA-agarose
T1 sequence (P14743 1-455): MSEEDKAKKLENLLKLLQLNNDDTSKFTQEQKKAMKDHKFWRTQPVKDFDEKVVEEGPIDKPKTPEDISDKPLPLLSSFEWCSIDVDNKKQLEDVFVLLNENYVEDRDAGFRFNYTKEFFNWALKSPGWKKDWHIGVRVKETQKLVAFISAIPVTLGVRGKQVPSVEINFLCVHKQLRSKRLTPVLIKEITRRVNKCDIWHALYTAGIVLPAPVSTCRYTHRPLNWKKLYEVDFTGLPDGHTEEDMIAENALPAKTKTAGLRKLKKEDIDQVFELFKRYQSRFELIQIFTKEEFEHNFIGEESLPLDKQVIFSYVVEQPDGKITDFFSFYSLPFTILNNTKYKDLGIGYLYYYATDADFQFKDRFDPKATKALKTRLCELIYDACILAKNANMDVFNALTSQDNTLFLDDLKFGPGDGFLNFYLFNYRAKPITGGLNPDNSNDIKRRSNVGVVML
Method: (§1) The synthetic octapeptide Gly-Asn-Ala-Ala-Ala-Ala-Arg-Arg was initially used to identify a unique enzymatic activity which transfers myristic acid to the amino terminal glycine of this and other peptides. […] The enzyme activity was determined in an in vitro assay which measures the transfer of [^3 H]-myristic acid to the acceptor peptide. The transfer reaction is dependent on adenosine triphosphate (ATP) and coenzyme A (CoA). The enzymatic product was then identified by high performance liquid chromatography (HPLC) by co-elution with a chemically synthesized myristoyl peptide standard. […] Both contained M-myristoyl glycine.
(§2) [^3 H]Fatty acyl CoA was synthesized enzymatically and added to the incubation as follows. The acyl CoA synthetase reaction consisted of (per one assay tube): 0.5 μCi of [^3 H]myristic acid; 25 μl of 2X assay buffer (20 mM Tris, pH 7.4, 2 mM dithiothreitol, 10 mM MgCl2, 0.2 mM EGTA); 5 μl of 50 mM ATP in distilled water, adjusted to pH 7.0 with NaOH; […] in distilled water; 15 μl of lmU/μl of Pseudomonas acyl CoA synthetase (Sigma) in 50 mM N-2-hydroxyethylpiperazine-N'-2-ethane sulfonic acid, pH 7.3; 2.5 μl of distilled water. The reaction was allowed to proceed for 20 minutes at 30° C. Typically, 40% to 50% of the [^3 H]fatty acid was converted to its CoA ester by this procedure as measured by determining the radioactivity remaining in the reaction after acidification with 6 N HCl to pH 2.0 and extraction 6 times with 5 volumes of heptane, a modification of the method of Hosaka et al., Meth. Enzymol. 71, 325-333 (1981). Fifty microliters of this reaction were added to tubes containing 40 μl of assay extraction buffer (see above) and 10 μl of 1 mM GlyAsnAlaAlaAlaAlaArgArg. The assay was initiated by the addition of 10 μl of yeast cell extract (typically 50 μg of protein) per tube, followed by incubation at 30° C. for 10 min. The assay was terminated by the addition of 110 μl of methanol and 10 μl of 100% trichloracetic acid (w/v) per tube, followed by cooling ten minutes on ice. Precipitated protein was removed by centrifugation at 8000 x g for 3 minutes in a tabletop Eppendorf centrifuge. (Under these conditions, 95% of synthetic [^3 H]myristoylpeptide or [^3 H]palmitoylpeptide remined soluble when added to an assay mixture.) Fifty microliters of the supernatant were mixed with 75 μl methanol and 75 μl of HPLC buffer A, and analyzed by reverse phase HPLC on a 3.9 mm by 30 cm Waters μ-Bondapak C18 column using the same HPLC buffers described above, starting at 35% acetonitrile and eluting with a 1% per minute acetonitrile gradient. One minute fractions were collected and the radioactivity in each fraction determined by liquid scintillation counting. [^3 H]Myristoyl-GlyAsnAlaAlaAlaAlaArgArg eluted at 24 minutes, while [^3 H]palmitoyl-GlyAsnAlaAlaAlaAlaArgArg eluted at 30 minutes.
Several octapeptides illustrating the present invention were synthesized by the solid phase Merrifield procedure essentially as described in Example 1 and then tested for activity as substrates or inhibitors for the myristoylating enzyme from yeast (S. cerevisiae strain JR153). The octapeptide substrate specificity of the enzyme was tested under the assay conditions described in Example 2 but using 1 μCi of [^3 H]- myristic acid per assay tube. The yeast enzyme used in this example was partially purified from a crude homogenate of the cultured yeast cells by fractionation with 51-70% (NH4)2 SO4 followed by ion exchange column chromatography with DEAE-Sepharose® CL-6B (Pharmacia) and affinity chromatography with CoA-agarose affinity matrix (Pharmacia).

[2] = substrate: CC(C)[C@H](NC(=O)CN)C(=O)N[C@@H](C)C(=O)N[C@@H](C)C(=O)N[C@@H](C)C(=O)N[C@@H](C)C(=O)N[C@@H](CCCNC(=N)N)C(=O)N[C@@H](CCCNC(=N)N)C(N)=O; format: biochemical, Saccharomyces cerevisiae; settings: other: peptide as acyl acceptor, 1 μCi [3H]-myristic acid per tube, 30.0 °C
Method: as §1
as §2, with “The reaction was allowed to proceed for 20 minutes at 30° C.” left out, “Enzymol. 71, 325-333 (1981). Fifty microliters of this reaction were added to tubes containing 40 μl of assay extraction buffer (see above) and 10 μl of 1 mM GlyAsnAlaAlaAlaAlaArgArg. The assay was initiated by the addition of 10 μl of yeast cell extract (typically 50 μg of protein) per tube, followed by incubation at 30° C. for 10 min. The assay was terminated by the addition of 110 μl of methanol and 10 μl of 100% trichloracetic acid (w/v) per tube, followed by cooling ten minutes on ice. Precipitated protein was removed by centrifugation at 8000 x g for 3 minutes in a tabletop Eppendorf centrifuge.” left out, “[^3 H]Myristoyl-GlyAsnAlaAlaAlaAlaArgArg eluted at 24 minutes, while [^3 H]palmitoyl-GlyAsnAlaAlaAlaAlaArgArg eluted at 30 minutes.” left out

[3] = substrate: CC(C)C[C@H](NC(=O)CN)C(=O)N[C@@H](C)C(=O)N[C@@H](C)C(=O)N[C@@H](C)C(=O)N[C@@H](C)C(=O)N[C@@H](CCCNC(=N)N)C(=O)N[C@@H](CCCNC(=N)N)C(N)=O; format: biochemical, Saccharomyces cerevisiae; settings: other: peptide as acyl acceptor, 1 μCi [3H]-myristic acid per tube, 30.0 °C
Method: as §1
as §2, with “The reaction was allowed to proceed for 20 minutes at 30° C.” left out, “Enzymol. 71, 325-333 (1981). Fifty microliters of this reaction were added to tubes containing 40 μl of assay extraction buffer (see above) and 10 μl of 1 mM GlyAsnAlaAlaAlaAlaArgArg. The assay was initiated by the addition of 10 μl of yeast cell extract (typically 50 μg of protein) per tube, followed by incubation at 30° C. for 10 min. The assay was terminated by the addition of 110 μl of methanol and 10 μl of 100% trichloracetic acid (w/v) per tube, followed by cooling ten minutes on ice. Precipitated protein was removed by centrifugation at 8000 x g for 3 minutes in a tabletop Eppendorf centrifuge.” left out, “[^3 H]Myristoyl-GlyAsnAlaAlaAlaAlaArgArg eluted at 24 minutes, while [^3 H]palmitoyl-GlyAsnAlaAlaAlaAlaArgArg eluted at 30 minutes.” left out

[4] = substrate: C[C@H](NC(=O)[C@H](C)NC(=O)[C@H](C)NC(=O)[C@H](CC(N)=O)NC(=O)CN)C(=O)N[C@@H](C)C(=O)N[C@@H](CCCNC(=N)N)C(=O)N[C@@H](CCCNC(=N)N)C(N)=O; format: biochemical, Saccharomyces cerevisiae; settings: other: peptide as acyl acceptor, 1 μCi [3H]-myristic acid per tube, 30.0 °C
Method: as §1
as §2, with “The reaction was allowed to proceed for 20 minutes at 30° C.” left out, “Enzymol. 71, 325-333 (1981). Fifty microliters of this reaction were added to tubes containing 40 μl of assay extraction buffer (see above) and 10 μl of 1 mM GlyAsnAlaAlaAlaAlaArgArg. The assay was initiated by the addition of 10 μl of yeast cell extract (typically 50 μg of protein) per tube, followed by incubation at 30° C. for 10 min. The assay was terminated by the addition of 110 μl of methanol and 10 μl of 100% trichloracetic acid (w/v) per tube, followed by cooling ten minutes on ice. Precipitated protein was removed by centrifugation at 8000 x g for 3 minutes in a tabletop Eppendorf centrifuge.” left out, “[^3 H]Myristoyl-GlyAsnAlaAlaAlaAlaArgArg eluted at 24 minutes, while [^3 H]palmitoyl-GlyAsnAlaAlaAlaAlaArgArg eluted at 30 minutes.” left out

[5] = partially purified yeast enzyme

## GYAAAARR-NH2 [Gly--Tyr--Ala--Ala--Ala--Ala--Arg--Arg, Gly-Tyr-Ala-Ala-Ala-Ala-Arg-Arg]
[1]; [5]
  Ki: 150 µM

## GLAAAARR-NH2 [Gly--Leu--Ala--Ala--Ala--Ala--Arg--Arg]
[1]; [5]
  Ki: 60 µM

## GNAAAARR-NH2 [Gly--Asn--Ala--Ala--Ala--Ala--Arg--Arg, Gly-Asn-Ala-Ala-Ala-Ala-Arg-Arg, reference compound]
[1]; absolute Vmax, footnote to Table II
  Vmax: 2840 pmol myristoyl peptide formed
[1]; relative to Gly-Asn-Ala-Ala-Ala-Ala-Arg-Arg = 100, partially purified yeast enzyme
  Relative Vmax (%): 100%

## GVAAAARR-NH2 [Gly--Val--Ala--Ala--Ala--Ala--Arg--Arg]
[1]; [5]
  Ki: 60 µM

## GFAAAARR-NH2 [Gly--Phe--Ala--Ala--Ala--Ala--Arg--Arg, Gly-Phe-Ala-Ala-Ala-Ala-Arg-Argp]
[1]; [5]
  Ki: 150 µM

B1: myristoylating enzyme from yeast (N-myristoylglycylpeptide synthetase) (Saccharomyces cerevisiae S288C) (protein)
chain: T1 sequence (P14743 1-455)
notes: partially purified from a crude homogenate of the cultured yeast cells by fractionation with 51-70% (NH4)2 SO4; endogenous in cells; host or cells: S. cerevisiae strain JR153; ammonium sulfate cut, DEAE-Sepharose CL-6B, CoA-agarose
[2]
  Km: 700 µM
[3]
  Km: 300 µM
[4]
  Km: 60 µM

— patent US4709012A, “Novel inhibitor peptides” (Washington University, priority 1986, dated 1987)
